Experiment [1] deals with 5-hydroxytryptamine receptor 2A (Rattus norvegicus, UniProt P14842).
A further experiment addresses Histamine H1 receptor (Cavia porcellus, UniProt P31389).
Experiment [2] deals with 5-hydroxytryptamine receptor 1B (Homo sapiens, UniProt P28222).
Experiment [3] addresses 5-hydroxytryptamine receptor 1E (Homo sapiens, UniProt P28566).
Experiment [4] addresses D(2) dopamine receptor (Homo sapiens, UniProt P14416).
Experiment [5] deals with Alpha-1A adrenergic receptor (Rattus norvegicus, UniProt P43140).
Sequence of Alpha-1A adrenergic receptor (Rattus norvegicus, UniProt P43140) (P43140 whole entry): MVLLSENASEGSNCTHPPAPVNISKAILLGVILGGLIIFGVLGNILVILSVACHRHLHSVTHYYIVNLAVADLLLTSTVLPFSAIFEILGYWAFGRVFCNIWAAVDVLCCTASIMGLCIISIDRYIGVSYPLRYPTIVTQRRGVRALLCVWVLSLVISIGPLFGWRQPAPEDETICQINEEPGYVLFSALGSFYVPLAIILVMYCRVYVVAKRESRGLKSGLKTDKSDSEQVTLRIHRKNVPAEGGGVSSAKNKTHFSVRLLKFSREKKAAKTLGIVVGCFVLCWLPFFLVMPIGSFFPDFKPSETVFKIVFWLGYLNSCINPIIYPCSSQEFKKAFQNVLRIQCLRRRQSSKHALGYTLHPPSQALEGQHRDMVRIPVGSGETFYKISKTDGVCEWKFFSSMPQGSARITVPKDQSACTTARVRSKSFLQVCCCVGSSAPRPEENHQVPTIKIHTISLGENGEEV
Experiment [6] concerns the target D(1A) dopamine receptor (Homo sapiens, UniProt P21728).
Experiment [7] deals with Gamma-aminobutyric acid receptor subunit alpha-1 (Rattus norvegicus, UniProt P62813).
In experiment [8] the target is 5-hydroxytryptamine receptor 2B (Rattus norvegicus, UniProt P30994).
Sequence of 5-hydroxytryptamine receptor 2B (P30994 whole entry): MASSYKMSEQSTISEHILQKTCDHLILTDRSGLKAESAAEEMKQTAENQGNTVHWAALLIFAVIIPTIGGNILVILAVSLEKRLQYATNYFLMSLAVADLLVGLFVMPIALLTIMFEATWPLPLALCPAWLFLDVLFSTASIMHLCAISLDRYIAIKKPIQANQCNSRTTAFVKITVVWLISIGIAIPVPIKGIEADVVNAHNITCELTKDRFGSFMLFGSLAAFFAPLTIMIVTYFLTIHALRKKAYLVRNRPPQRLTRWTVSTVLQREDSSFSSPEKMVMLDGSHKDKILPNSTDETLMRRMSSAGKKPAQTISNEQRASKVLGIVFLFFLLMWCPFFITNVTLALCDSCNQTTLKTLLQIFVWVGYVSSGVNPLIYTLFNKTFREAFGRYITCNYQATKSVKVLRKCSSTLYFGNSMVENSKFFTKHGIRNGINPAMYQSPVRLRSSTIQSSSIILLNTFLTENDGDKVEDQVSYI
The target of experiment [9] is 5-hydroxytryptamine receptor 2C (Sus scrofa, UniProt G7ZKZ7).
Sequence of 5-hydroxytryptamine receptor 2C (Sus scrofa, UniProt G7ZKZ7) (G7ZKZ7 whole entry): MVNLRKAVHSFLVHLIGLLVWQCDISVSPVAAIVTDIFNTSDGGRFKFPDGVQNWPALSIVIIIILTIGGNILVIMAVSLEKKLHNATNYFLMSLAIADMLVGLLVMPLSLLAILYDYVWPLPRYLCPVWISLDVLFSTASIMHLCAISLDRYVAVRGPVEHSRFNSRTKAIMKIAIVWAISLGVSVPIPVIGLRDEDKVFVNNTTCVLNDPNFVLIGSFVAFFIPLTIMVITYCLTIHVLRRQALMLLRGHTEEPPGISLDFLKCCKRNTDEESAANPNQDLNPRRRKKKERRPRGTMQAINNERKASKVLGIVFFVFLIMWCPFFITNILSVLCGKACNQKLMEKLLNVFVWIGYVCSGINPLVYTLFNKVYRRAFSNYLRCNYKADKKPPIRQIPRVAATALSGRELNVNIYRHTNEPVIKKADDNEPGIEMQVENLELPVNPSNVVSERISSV
For experiment [10], the target named is 5-hydroxytryptamine receptor 4 (Sus scrofa, UniProt Q29006).
Sequence of 5-hydroxytryptamine receptor 4 (Q29006 whole entry): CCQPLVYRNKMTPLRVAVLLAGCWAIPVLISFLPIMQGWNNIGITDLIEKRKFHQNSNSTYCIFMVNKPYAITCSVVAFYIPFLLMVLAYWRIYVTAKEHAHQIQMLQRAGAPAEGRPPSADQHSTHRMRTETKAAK
Experiment [11] has as its target Alpha-2C adrenergic receptor (Rattus norvegicus, UniProt P22086).
For experiment [12], the target named is 5-hydroxytryptamine receptor 1D (Homo sapiens, UniProt P28221).
Experiment [13] concerns the target 5-hydroxytryptamine receptor 1A (Rattus norvegicus, UniProt P19327).
The target in experiment [14] is D(2) dopamine receptor (Rattus norvegicus, UniProt P61169).
The target in experiment [15] is 5-hydroxytryptamine 1D receptor (Bos taurus, UniProt Q8MI13).
In experiment [16] the target is 5-hydroxytryptamine receptor 1B (Oryctolagus cuniculus, UniProt P49144).
In experiment [17] the target is 5-hydroxytryptamine receptor 2A (Oryctolagus cuniculus, UniProt G1SYA7).
In experiment [18] the target is Alpha-1A adrenergic receptor (Oryctolagus cuniculus, UniProt O02824).
Experiment [19] concerns the target Beta-1 adrenergic receptor (Cavia porcellus, UniProt B0FL73).
For experiment [20], the target named is Beta-2 adrenergic receptor (Sylvilagus floridanus, UniProt Q9BFY9).
Sequence of Beta-2 adrenergic receptor (Sylvilagus floridanus, UniProt Q9BFY9) (Q9BFY9 whole entry): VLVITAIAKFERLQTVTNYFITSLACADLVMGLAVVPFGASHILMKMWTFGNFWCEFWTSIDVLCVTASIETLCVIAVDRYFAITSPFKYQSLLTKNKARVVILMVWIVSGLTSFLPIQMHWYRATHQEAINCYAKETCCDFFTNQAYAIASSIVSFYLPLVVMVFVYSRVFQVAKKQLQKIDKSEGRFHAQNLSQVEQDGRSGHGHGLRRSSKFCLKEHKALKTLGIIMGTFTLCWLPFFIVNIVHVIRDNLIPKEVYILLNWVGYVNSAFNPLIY
Experiment [21] concerns the target Muscarinic acetylcholine receptor M3 (Sus scrofa, UniProt P11483).
Experiment [22] deals with D(1A) dopamine receptor (Rattus norvegicus, UniProt P18901).
Sequence of D(1A) dopamine receptor (Rattus norvegicus, UniProt P18901) (P18901 whole entry): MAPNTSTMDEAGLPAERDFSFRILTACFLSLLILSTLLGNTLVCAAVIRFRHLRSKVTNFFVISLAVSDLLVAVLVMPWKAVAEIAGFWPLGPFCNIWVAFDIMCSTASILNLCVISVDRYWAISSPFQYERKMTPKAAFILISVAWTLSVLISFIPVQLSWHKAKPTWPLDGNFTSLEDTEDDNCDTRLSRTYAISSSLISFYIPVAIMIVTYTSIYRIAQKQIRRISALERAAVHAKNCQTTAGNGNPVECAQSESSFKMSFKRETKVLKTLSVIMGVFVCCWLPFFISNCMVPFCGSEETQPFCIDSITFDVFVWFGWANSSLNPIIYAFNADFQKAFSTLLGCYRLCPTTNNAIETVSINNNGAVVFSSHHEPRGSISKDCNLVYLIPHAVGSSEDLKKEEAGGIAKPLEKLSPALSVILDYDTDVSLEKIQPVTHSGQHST
A further experiment addresses Histamine H2 receptor (Oryctolagus cuniculus, UniProt G1TWL8).
Experiment [23] deals with Beta-1 adrenergic receptor (Rattus norvegicus, UniProt P18090).
Experiment [24] concerns the target 5-hydroxytryptamine receptor 2C (Rattus norvegicus, UniProt P08909).
The target of experiment [25] is 5-hydroxytryptamine receptor 1D (Cavia porcellus, UniProt Q60484).
Experiment [26] has as its target 5-hydroxytryptamine receptor 3A (Rattus norvegicus, UniProt P35563).
The target in experiment [27] is Alpha-2B adrenergic receptor (Rattus norvegicus, UniProt P19328).
Experiment [28] has as its target Beta-2 adrenergic receptor (Rattus norvegicus, UniProt P10608).
Experiment [29] deals with 5-hydroxytryptamine receptor 2C (Homo sapiens, UniProt P28335).
Experiment [30] deals with Alpha-2A adrenergic receptor (Homo sapiens, UniProt P08913).

Molecules are shown by their SMILES. Where “and” joins values, the source holds several entries; their conditions need not be identical. Equal entries are not always repeated.

Sequence of 5-hydroxytryptamine receptor 2A (Rattus norvegicus, UniProt P14842) (P14842 whole entry): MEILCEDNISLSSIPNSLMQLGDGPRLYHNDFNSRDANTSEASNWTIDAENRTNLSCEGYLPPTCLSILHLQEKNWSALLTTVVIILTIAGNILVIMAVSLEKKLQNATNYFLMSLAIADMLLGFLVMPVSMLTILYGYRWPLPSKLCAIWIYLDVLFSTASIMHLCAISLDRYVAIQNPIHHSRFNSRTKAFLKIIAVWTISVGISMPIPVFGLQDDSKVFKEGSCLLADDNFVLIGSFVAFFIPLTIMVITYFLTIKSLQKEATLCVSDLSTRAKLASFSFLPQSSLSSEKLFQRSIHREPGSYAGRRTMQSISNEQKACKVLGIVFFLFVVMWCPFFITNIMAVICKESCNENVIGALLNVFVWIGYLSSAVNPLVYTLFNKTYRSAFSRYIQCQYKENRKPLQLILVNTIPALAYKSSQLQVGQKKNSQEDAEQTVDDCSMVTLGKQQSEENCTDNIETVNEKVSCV
Sequence of Histamine H1 receptor (P31389 whole entry): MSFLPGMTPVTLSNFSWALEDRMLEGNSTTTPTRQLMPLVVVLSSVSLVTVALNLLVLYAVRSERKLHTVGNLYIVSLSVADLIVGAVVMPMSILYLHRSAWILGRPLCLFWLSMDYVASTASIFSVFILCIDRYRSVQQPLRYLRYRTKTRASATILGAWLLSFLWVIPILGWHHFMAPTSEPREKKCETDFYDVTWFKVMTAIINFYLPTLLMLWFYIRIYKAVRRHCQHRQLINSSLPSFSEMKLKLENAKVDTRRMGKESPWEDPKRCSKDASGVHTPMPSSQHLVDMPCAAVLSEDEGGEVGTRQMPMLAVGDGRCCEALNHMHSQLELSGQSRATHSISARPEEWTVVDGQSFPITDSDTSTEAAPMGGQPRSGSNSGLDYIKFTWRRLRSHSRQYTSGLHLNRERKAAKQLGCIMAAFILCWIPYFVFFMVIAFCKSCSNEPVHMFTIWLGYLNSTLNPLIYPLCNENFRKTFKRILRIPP
Sequence of D(2) dopamine receptor (Homo sapiens, UniProt P14416) (P14416 whole entry): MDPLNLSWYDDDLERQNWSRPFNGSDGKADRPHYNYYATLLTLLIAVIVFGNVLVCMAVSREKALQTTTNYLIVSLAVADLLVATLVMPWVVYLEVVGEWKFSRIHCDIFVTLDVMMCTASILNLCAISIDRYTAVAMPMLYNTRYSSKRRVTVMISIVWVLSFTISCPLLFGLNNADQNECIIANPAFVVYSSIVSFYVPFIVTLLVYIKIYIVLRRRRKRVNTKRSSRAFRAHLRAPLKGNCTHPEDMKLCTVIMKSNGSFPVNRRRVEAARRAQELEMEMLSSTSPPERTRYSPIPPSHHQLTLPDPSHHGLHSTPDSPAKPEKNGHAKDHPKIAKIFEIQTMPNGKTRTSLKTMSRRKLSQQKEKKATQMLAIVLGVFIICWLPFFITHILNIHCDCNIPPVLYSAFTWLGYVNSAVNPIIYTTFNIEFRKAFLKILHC
Sequence of 5-hydroxytryptamine receptor 1A (P19327 whole entry): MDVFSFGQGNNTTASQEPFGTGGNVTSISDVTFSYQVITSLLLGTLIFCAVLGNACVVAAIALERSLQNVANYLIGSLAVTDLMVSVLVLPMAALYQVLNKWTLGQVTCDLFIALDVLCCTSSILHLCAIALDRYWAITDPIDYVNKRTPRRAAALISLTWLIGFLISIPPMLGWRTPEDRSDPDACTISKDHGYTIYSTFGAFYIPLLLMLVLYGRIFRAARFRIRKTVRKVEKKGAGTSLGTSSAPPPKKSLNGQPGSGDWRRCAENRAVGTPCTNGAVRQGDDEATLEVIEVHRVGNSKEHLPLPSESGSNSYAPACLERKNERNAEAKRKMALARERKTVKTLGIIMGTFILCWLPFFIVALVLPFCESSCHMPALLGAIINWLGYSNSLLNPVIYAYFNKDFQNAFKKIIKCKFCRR
Sequence of Alpha-2C adrenergic receptor (P22086 whole entry): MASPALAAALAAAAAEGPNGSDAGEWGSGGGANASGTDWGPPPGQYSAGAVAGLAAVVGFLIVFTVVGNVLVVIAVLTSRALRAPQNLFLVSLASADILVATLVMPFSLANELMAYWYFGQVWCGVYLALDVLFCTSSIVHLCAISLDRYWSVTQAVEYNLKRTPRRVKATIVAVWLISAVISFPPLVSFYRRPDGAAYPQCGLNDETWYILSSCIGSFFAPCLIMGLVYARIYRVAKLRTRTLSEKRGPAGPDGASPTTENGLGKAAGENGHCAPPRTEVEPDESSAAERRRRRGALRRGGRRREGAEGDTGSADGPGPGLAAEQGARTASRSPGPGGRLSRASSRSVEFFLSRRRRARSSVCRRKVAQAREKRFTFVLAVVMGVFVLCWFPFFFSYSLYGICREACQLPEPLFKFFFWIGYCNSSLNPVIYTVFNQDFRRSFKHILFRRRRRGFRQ
Sequence of Histamine H2 receptor (G1TWL8 whole entry): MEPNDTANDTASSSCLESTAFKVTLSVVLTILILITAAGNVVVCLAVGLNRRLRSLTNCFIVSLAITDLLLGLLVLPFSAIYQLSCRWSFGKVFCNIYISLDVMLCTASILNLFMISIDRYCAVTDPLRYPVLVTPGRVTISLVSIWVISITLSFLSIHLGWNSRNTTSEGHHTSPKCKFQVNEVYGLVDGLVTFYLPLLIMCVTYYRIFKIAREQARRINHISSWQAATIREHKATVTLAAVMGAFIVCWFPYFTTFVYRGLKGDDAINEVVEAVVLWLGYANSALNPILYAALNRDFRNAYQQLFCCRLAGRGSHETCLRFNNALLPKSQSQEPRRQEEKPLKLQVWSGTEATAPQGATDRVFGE

One may read the Ki as a measure of affinity in units of concentration, obtained from inhibition or displacement. Read a high Ki as a looser hold on the target. For the compound `Cc1cc(NC(=O)Nc2ccc3c(ccn3C)c2)sn1` [CAS_3277600], the Ki in experiment [1] is 5.01 µM; at Histamine H1 receptor, more than 10 µM; in [2] it was more than 10 µM; in [3], more than 10 µM; at D(2) dopamine receptor [4] it was more than 10 µM; in experiment [5], 1 µM. Further, the Ki on D(1A) dopamine receptor [6] was more than 10 µM; in [7], more than 10 µM; in [8] it was 0.0159 µM and 0.0501 µM; in experiment [9] it was 1 µM; in experiment [10] it was more than 10 µM; in [11], 1 µM.

Take `CC(N)Cc1c[nH]c2ccc(OCc3cccs3)cc12` (stereo not drawn) [NSC_5311036]: the Ki is 3.98 µM in [1]; more than 10 µM on Histamine H1 receptor; 0.251 µM in experiment [12]; 1.26 µM in [13]; more than 10 µM on D(2) dopamine receptor [14]; 0.501 µM in experiment [15]. Moreover, the Ki in [16] is more than 10 µM; in experiment [17], more than 10 µM; in [8], 0.0251 µM; in [10] it was more than 10 µM; in experiment [18], more than 10 µM; in experiment [11], more than 10 µM. Also, the Ki (in [19]; in experiment [20]; in [21]; on D(1A) dopamine receptor [22]; on Histamine H2 receptor) was more than 10 µM each time.

For `Cn1ccc2cc(NC(=O)Nc3cccnc3)ccc21` [SB 200646], the Ki in experiment [1] was 6.31 µM and 5.01 µM; in experiment [13], more than 10 µM; in experiment [23] it was more than 10 µM; at D(2) dopamine receptor [4] it was more than 10 µM; in experiment [5], more than 10 µM; in [24], 0.126 µM. Also, the Ki in experiment [25] was more than 10 µM; in experiment [8], 0.0316 µM and 0.0631 µM; in experiment [26], more than 10 µM; in [27], more than 10 µM; at D(1A) dopamine receptor [22], more than 10 µM; in [28] it was more than 10 µM. Besides, the Ki was 0.1 µM in [29] and more than 10 µM in [30].
